Values belong to the compound of their own block, whether it stands above or below them.
Experiments:
[1] = molecular target: Mitogen-activated protein kinase 9 (Homo sapiens, UniProt P45984); test: Selectivity interaction (Enzymatic assay) EUB0001199aCl MAPK9
[2] = molecular target: T1, Non-receptor tyrosine-protein kinase TNK1 (Homo sapiens) (UniProt Q13470); settings: at 10 µM
T1 sequence (whole entry): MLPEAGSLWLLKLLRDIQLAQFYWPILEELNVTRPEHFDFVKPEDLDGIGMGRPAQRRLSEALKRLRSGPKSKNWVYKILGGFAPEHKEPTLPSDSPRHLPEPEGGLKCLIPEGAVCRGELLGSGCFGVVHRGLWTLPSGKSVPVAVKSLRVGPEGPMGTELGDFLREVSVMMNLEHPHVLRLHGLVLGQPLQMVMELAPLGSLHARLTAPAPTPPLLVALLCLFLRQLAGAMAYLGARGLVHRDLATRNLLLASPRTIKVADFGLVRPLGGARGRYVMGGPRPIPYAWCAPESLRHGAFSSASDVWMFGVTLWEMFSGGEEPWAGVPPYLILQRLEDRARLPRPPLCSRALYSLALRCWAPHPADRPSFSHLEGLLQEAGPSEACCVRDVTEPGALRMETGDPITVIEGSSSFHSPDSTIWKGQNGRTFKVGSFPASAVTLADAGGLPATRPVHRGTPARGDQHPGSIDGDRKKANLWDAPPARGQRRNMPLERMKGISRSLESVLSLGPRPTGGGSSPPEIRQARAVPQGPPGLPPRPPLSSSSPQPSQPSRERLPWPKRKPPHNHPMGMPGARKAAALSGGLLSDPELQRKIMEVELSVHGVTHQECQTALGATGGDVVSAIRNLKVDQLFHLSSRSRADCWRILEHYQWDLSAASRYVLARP

[3] = molecular target: T2, Eukaryotic translation initiation factor 2-alpha kinase 3 (Homo sapiens) (UniProt Q9NZJ5); test: Selectivity interaction (ProQinase) EUB0000171b EIF2AK3
T2 sequence (whole entry): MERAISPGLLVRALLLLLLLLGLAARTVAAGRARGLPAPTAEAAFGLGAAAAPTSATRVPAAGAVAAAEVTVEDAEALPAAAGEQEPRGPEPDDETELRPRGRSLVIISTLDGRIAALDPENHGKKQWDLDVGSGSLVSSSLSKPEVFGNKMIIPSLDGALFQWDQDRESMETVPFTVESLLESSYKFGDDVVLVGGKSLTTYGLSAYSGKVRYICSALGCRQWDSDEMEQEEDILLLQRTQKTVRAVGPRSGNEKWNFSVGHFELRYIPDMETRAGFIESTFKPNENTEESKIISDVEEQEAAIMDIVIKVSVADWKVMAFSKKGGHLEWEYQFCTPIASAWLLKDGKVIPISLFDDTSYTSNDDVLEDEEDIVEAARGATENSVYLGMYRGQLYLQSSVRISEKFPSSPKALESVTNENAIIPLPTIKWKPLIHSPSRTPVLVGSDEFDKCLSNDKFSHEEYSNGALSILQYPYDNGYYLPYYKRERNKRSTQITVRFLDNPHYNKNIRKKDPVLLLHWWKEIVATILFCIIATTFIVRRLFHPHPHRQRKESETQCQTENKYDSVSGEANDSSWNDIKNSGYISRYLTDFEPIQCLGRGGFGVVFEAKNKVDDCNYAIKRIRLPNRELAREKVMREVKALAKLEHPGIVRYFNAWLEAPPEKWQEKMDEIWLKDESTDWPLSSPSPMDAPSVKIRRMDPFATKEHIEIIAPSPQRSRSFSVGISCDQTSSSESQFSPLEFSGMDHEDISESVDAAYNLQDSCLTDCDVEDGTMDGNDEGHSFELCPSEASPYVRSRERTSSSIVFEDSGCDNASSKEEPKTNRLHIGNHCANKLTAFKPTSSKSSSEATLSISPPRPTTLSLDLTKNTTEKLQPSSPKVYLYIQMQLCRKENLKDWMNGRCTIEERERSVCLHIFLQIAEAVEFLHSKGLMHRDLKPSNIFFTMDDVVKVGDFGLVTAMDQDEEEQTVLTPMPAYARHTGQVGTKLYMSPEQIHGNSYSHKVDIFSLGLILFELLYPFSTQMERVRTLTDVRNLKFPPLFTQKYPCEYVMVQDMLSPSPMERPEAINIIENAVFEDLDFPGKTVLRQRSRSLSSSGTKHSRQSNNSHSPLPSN

[4] = molecular target: Calcium/calmodulin-dependent protein kinase type 1 (Homo sapiens) (UniProt Q14012); test: Selectivity interaction (Upstate Kinase Profiler service (Millipore)) EUB0000056c CAMK1; settings: at 1 µM
Chain of Calcium/calmodulin-dependent protein kinase type 1 (Homo sapiens) (Q14012 whole entry, looked up, canonical isoform): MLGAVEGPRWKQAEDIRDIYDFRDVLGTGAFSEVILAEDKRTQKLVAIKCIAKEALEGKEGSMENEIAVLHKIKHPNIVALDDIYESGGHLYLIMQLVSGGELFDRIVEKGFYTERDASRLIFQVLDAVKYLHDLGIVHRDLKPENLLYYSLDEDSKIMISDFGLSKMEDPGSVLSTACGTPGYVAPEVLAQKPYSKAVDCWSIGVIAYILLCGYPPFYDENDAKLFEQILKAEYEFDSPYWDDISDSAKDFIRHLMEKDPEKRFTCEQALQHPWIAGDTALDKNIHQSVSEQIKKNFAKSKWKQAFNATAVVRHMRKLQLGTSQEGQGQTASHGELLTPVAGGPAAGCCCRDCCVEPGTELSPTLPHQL

[5] = molecular target: T3, Casein kinase I isoform alpha-like (Homo sapiens) (UniProt Q8N752); test: Selectivity interaction (KinomeScan (DiscoverX)) EUB0001619a CSNK1A1L; settings: at 1 µM
T3 sequence (whole entry): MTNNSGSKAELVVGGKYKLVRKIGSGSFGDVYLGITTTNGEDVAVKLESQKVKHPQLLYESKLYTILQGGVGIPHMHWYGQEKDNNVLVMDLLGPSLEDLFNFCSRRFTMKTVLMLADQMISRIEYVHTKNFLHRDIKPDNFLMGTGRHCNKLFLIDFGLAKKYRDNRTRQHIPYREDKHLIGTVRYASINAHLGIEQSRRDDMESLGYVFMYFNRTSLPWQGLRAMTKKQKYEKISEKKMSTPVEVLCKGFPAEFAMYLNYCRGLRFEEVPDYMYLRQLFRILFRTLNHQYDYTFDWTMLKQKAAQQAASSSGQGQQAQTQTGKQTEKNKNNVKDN

[6] = molecular target: T4, Receptor-interacting serine/threonine-protein kinase 1 (Homo sapiens) (UniProt Q13546); test: Selectivity interaction (KinomeScan (DiscoverX)) EUB0000618a RIPK1; settings: at 10 µM
T4 sequence (whole entry): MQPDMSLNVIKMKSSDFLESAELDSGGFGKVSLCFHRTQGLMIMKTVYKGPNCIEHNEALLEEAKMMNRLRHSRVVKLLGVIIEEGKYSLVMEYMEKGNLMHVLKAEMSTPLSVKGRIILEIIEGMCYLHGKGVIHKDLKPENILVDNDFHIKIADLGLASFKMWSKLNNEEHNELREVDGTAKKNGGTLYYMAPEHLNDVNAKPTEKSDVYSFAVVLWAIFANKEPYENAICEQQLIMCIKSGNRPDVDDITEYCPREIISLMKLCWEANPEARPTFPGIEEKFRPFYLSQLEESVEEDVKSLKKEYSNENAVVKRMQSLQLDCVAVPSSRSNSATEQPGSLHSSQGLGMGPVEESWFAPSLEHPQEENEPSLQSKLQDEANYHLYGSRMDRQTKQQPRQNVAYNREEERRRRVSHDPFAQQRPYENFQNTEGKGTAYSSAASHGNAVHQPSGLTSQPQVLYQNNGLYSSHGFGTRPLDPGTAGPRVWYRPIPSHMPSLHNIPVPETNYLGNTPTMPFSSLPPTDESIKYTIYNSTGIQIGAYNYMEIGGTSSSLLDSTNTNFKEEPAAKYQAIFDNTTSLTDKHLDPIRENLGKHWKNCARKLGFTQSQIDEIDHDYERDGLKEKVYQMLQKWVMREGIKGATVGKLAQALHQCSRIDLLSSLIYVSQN

Chain of Mitogen-activated protein kinase 9 (P45984 whole entry): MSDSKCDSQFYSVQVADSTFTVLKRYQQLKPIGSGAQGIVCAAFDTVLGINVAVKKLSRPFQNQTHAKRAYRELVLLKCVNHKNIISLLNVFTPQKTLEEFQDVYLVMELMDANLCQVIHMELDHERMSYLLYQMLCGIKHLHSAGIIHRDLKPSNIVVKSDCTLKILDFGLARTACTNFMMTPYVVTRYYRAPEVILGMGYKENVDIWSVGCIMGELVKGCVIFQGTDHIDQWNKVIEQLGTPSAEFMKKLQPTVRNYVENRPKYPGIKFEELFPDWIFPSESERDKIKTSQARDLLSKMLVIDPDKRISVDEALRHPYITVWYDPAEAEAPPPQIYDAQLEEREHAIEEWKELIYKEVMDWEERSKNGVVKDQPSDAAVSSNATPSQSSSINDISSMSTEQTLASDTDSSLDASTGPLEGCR

Structure (SMILES): CCN(CC)CCCCNc1ncc2cc(-c3cc(OC)cc(OC)c3)c(NC(=O)NC(C)(C)C)nc2n1
% of control [2]: 100%

Structure (SMILES): N#Cc1cccc(-c2c[nH]c3ncnc(N4CCOCC4)c23)c1
% of control [5]: 96%

Structure (SMILES): O[C@H]1CC[C@H](Nc2ncc3nc(Nc4c(F)cc(F)cc4F)n([C@H]4CCOC4)c3n2)CC1
% of control [6]: 100%

Next, values leading:

IC50 [1]: 4.95 µM
Structure (SMILES): CN1Cc2nccc(-c3cn(C)nc3-c3ccc(F)cc3)c2C1=O

% of control ([3]; at 1 µM): 92%
% of control ([3]; at 5 µM): 97%
Structure (SMILES): C=CC(=O)Nc1cccc(C(=O)Nc2ccc(Nc3cc(-c4[nH]c(SC)nc4C)ccn3)cc2)c1

% of inhibition [4]: 2%
Structure (SMILES): Cc1ccc(-c2ccc3c(ccc4sc5c(c43)NC[C@@H](C)NC5=O)n2)cn1
